Measurements taken from PMC9421654, “Discovery of Substituted Di(pyridin-2-yl)-1,2,4-thiadiazol-5-amines as Novel Macrofilaricidal Compounds for the Treatment of Human Filarial Infections” (Journal of Medicinal Chemistry, 2022).

How the values were obtained:
[1] = in vitro; details: human, Caco-2
[2] = THLE-2 cytotoxicity assay (ATP); details: human
In short: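 THLE-2 cells in supplemented LHC-8 medium were exposed for 24 or 72 h to final concentrations of 0.01–300 μM. Viability was read as ATP by CellTiter-Glo luminescence and normalized to DMSO vehicle. IC50 came from nonlinear regression of dose-response curves.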

[3] = system: CEREP receptor, ion channel, transporter panel; assay: Eurofins CEREP non-kinase panel, binding; details: binding at 10 μM
Method: [36] Eurofins Cerep, Le Bois l’Evêque B.P. 30001, 86 600 Celle l’Evescault, France. Compound binding was calculated as a % inhibition of the binding of a radioactively labeled ligand specific for each target.

[4] = biological target: CYP2C19 (Homo sapiens, UniProt P33261); assay: Cytochrome P450 inhibition, 2C19; type: in vitro ADME; details: read-out: Cytochrome P450s IC50, 2C19
Chain of CYP2C19 (P33261 whole entry): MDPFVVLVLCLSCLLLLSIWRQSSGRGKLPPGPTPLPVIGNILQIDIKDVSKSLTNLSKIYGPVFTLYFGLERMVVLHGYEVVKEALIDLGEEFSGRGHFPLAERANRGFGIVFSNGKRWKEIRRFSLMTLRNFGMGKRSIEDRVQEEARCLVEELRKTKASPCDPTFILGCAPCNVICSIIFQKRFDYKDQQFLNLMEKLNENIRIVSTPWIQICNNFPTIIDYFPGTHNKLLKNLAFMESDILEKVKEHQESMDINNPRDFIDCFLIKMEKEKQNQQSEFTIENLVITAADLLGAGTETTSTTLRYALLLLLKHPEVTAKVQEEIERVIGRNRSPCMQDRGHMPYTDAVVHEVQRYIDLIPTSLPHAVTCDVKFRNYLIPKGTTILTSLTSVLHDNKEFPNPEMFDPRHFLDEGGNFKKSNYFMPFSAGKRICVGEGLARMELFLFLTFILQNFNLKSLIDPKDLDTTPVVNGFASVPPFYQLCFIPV

[5] = biological target: CYP2C9 (Homo sapiens, UniProt P11712); assay: Cytochrome P450 inhibition, 2C9; type: in vitro ADME; details: read-out: Cytochrome P450s IC50, 2C9
Chain of CYP2C9 (P11712 whole entry): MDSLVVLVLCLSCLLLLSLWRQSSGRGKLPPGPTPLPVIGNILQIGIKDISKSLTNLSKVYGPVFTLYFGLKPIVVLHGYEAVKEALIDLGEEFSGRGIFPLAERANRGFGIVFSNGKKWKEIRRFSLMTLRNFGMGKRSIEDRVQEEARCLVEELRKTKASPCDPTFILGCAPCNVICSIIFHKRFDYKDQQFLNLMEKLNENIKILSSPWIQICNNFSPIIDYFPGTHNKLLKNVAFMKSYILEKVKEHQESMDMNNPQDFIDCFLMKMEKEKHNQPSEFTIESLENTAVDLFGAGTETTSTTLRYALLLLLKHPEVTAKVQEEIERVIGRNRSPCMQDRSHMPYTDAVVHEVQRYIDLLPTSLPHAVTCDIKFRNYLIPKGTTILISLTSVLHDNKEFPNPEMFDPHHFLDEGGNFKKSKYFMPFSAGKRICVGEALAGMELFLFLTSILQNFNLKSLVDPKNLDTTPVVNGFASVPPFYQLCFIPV

[6] = biological target: T1, CYP1A2 (Homo sapiens, UniProt P05177); assay: Cytochrome P450 inhibition, 1A2; type: in vitro ADME; details: read-out: Cytochrome P450s IC50, 1A2
T1 sequence (P05177 1-516): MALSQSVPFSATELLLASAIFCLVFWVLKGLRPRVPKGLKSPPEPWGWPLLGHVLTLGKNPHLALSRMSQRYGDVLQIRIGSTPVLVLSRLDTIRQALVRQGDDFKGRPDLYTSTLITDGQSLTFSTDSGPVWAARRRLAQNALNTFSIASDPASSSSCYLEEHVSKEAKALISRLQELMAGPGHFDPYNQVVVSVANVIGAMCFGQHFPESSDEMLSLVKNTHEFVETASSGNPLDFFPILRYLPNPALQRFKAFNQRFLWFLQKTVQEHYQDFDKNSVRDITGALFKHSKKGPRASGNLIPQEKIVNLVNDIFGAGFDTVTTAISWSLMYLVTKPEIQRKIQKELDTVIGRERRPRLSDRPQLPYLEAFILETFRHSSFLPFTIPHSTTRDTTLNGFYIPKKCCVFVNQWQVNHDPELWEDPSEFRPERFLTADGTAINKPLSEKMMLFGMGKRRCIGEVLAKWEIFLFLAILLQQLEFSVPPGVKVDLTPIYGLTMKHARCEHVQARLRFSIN

[7] = biological target: CYP2D6 (Homo sapiens, UniProt P10635); assay: Cytochrome P450 inhibition, 2D6; type: in vitro ADME; details: read-out: Cytochrome P450s IC50, 2D6
Chain of CYP2D6 (P10635 whole entry): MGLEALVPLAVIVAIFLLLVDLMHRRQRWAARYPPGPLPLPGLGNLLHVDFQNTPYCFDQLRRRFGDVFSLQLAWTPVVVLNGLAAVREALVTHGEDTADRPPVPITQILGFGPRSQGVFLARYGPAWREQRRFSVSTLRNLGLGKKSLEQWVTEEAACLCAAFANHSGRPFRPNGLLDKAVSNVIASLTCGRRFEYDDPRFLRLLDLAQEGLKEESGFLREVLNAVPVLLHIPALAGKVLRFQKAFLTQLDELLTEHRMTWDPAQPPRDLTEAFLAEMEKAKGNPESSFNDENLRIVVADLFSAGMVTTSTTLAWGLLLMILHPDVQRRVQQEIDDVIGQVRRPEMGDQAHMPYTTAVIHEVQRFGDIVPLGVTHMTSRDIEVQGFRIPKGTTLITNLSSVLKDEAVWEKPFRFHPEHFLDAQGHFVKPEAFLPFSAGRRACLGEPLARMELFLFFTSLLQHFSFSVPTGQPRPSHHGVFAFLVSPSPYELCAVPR

[8] = Plasma protein binding, human; type: in vitro ADME; details: read-out: Plasma Protein Binding %, h (converted)
[9] = biological target: T2, CYP2C8 (Homo sapiens, UniProt P10632); assay: Cytochrome P450 inhibition, 2C8; type: in vitro ADME; details: read-out: Cytochrome P450s IC50, 2C8
T2 sequence (P10632 1-490): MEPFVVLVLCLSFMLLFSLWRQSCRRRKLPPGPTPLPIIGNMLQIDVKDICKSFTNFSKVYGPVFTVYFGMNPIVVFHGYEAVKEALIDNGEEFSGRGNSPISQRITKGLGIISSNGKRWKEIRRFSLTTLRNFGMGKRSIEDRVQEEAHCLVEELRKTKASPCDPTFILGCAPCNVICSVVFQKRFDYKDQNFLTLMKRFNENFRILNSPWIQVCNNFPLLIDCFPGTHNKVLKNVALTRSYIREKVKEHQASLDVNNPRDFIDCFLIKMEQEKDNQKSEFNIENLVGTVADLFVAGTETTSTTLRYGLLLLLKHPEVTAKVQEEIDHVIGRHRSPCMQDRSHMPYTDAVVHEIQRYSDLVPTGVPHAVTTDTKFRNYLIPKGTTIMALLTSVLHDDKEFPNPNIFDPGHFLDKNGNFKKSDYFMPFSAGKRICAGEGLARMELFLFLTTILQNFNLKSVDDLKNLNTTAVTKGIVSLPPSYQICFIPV

[10] = biological target: CYP3A4 (Homo sapiens, UniProt P08684); assay: Cytochrome P450 inhibition, 3A4; type: in vitro ADME; details: read-out: Cytochrome P450s IC50, 3A4
Chain of CYP3A4 (P08684 whole entry): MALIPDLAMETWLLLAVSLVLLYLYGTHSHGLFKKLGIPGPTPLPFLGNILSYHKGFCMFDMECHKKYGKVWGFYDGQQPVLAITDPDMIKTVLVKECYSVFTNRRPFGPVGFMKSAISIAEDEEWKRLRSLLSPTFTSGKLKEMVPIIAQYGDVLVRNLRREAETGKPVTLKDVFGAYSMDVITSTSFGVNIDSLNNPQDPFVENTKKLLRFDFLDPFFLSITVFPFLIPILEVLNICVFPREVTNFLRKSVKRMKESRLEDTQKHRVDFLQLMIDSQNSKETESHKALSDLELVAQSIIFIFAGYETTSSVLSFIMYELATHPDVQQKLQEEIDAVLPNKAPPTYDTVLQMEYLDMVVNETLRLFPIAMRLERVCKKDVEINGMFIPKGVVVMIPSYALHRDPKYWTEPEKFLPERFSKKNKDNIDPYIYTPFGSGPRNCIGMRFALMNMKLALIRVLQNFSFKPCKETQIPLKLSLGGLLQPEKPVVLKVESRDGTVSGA

[11] = Exploratory toxicological evaluation in vivo
Excerpt: Showing no in vitro safety concerns (Table 7), it was progressed into in vivo safety evaluation studies. […] Since the mechanism of action of this series of compounds is not known, the best approach was to design analogs that would limit exposure within the brain.

[12] = system: TK6 cells; assay: Micronucleus test; type: cell-based; details: presence and absence of rat liver S9
[13] = biological target: T3, P-gp (MDR1) (Homo sapiens, UniProt P08183); assay: MDCK/MDR1 permeability and efflux; type: in vitro ADME; details: dog
T3 construct: expressed in transfected cells; host or cells: MDCK (Madin Darby canine kidney) cells
T3 sequence (P08183 whole entry): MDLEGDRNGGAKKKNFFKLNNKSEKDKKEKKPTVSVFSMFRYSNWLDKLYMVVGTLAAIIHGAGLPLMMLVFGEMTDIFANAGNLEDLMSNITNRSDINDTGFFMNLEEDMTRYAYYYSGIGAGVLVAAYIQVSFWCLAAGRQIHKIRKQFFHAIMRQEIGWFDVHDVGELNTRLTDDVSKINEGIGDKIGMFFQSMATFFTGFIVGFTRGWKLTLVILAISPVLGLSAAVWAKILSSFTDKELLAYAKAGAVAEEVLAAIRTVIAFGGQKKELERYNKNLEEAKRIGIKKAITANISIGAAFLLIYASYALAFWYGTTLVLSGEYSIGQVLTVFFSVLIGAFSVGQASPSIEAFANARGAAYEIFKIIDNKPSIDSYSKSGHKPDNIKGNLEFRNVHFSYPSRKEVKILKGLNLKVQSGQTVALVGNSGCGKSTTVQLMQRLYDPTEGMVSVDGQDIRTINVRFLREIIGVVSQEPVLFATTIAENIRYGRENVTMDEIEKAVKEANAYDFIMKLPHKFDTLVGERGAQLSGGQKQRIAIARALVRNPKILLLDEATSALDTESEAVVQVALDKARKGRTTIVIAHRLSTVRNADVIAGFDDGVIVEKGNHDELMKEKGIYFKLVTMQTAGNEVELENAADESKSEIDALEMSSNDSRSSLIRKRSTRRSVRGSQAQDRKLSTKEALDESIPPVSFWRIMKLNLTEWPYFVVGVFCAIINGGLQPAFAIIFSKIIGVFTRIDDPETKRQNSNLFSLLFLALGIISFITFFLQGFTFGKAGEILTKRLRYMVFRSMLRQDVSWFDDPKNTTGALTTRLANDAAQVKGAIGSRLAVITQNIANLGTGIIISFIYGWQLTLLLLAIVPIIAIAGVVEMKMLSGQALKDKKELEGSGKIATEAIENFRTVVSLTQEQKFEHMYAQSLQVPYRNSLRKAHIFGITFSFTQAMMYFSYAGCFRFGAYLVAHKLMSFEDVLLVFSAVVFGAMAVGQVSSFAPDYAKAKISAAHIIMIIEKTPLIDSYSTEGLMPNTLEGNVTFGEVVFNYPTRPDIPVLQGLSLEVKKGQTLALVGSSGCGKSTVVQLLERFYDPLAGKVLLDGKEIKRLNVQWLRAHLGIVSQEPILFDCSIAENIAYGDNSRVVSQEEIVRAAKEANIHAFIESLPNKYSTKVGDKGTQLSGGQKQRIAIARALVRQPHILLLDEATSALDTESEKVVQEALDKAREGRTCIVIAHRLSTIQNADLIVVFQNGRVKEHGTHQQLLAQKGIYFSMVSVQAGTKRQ
Excerpt: Our approach was to target compounds with efflux ratio (ER) >2.5 in the MDCK cell line transfected with MDR1 (multidrug resistance-1 transfected Madin Darby canine kidney cell line). […] Our goal was to impart structural elements designed to impart Pgp recognition.

Cc1cccnc1Nc1nc(-c2ccc(OC3CCN(C4CC4)CC3)cn2)ns1 [Compound 19, 3-[5-[(1-Cyclopropyl-4-piperidyl)oxy]-2-pyridyl]-N-(3-methyl-2-pyridyl)-1,2,4-thiadiazol-5-amine]
efflux ratio [1]: 0.9

CC(C)Oc1ccc(-c2nsc(Nc3ncccc3N(C)C)n2)nc1 [Compound 31, N^2-(3-(5-Isopropoxypyridin-2-yl)-1,2,4-thiadiazol-5-yl)-N3,N3-dimethylpyridine-2,3-diamine]
CC50 [2]: 36 µM
CEREP receptor, ion channel, transporter panel: targets bound / tested ([3]; targets with >70%): 5/76
IC50 [4]: 20 µM
IC50 [5]: 5.5 µM
IC50 [6]: > 30 µM
IC50 [7]: > 30 µM
fraction unbound [8]: < 0.01
IC50 [9]: 7.1 µM
IC50 [10]: 22 µM
exploratory toxicological evaluation, observations [11]: CNS (central nervous system)-related observations were noted

CC(=O)N(C)c1cccnc1Nc1nc(-c2ccc(OC(C)C)cn2)ns1 [Compound 47, N-(2-((3-(5-Isopropoxypyridin-2-yl)-1,2,4-thiadiazol-5-yl)amino)pyridin-3-yl)-N-methylacetamide]
CC50 [2]: 106 µM
micronucleus [12]: negative
CEREP receptor, ion channel, transporter panel: targets bound / tested ([3]; targets with >50%): 1/76
IC50 [4]: 29 µM
IC50 [5]: 5.7 µM
IC50 [6]: > 30 µM
IC50 [7]: 30 µM
Papp A→B [13]: 3.9 ×10⁻⁶ cm/s
fraction unbound [8]: 0.093
IC50 [9]: > 30 µM
IC50 [10]: > 30 µM

CC(C)Oc1ccc(-c2nsc(Nc3ncccc3N(C)C(=O)C3CC3)n2)nc1 [Compound 50, N-(2-((3-(5-Isopropoxypyridin-2-yl)-1,2,4-thiadiazol-5-yl)amino)pyridin-3-yl)-N-methylcyclopropanecarboxamide]
Papp A→B [13]: 19.3 ×10⁻⁶ cm/s
